Data reported in patent publication EP1262195A1, “VASOACTIVE AGENTS” (Takeda Chemical Industries, Ltd., priority 2000, dated 2001).

Assays:
[1] = target: T1, human GPR14-expressing CHO cell (Homo sapiens, UniProt Q9UKP6); test: Change in intracellular calcium concentration in human GPR14-expressing CHO cells (FLIPR), antagonist activity assay; assay type: cell-based; settings: 10µl of 10nM urotensin II added, Fluo3, FLIPR
T1 construct: expressed in transfected cells
T1 sequence (Q9UKP6 1-389): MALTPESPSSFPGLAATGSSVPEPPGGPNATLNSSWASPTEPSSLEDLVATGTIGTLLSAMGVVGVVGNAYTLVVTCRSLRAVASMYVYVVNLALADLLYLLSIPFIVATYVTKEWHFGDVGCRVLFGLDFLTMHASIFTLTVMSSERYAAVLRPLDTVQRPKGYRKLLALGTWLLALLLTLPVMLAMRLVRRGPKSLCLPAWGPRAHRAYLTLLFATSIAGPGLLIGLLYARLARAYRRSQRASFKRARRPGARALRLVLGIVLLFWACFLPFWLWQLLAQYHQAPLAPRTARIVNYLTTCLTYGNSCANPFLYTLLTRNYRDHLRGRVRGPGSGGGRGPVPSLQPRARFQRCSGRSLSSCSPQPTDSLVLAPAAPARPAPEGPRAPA
Procedure: After the transformant E. coli DH5α/pcDNA3.1-hGPR14 prepared in Reference Example 2 was cultured, plasmid DNA for pcDNA3.1-hGPR1 was prepared by using Plasmid Midi Kit (Qiagen). The plasmid DNA was introduced into CHO dhfr cells using CellPhect Transfection Kit (Amersham Pharmacia Biotech) according to the protocol appended thereto. 10µg of DNA was co-precipitated with calcium phosphate to prepare a suspension which was then added to a 10cm petri dish on which 5 x 10^5 or 1 x 10^6 CHO dhfr^- cells had previously been inoculated 24 hours before then. Cells were cultured in a MEMα medium containing 10% fetal bovine serum for one day, subcultured, and cultured in a selection medium, a MEMα medium containing 0.4 mg/ml G418 (GIBCO BRL) and 10% dialysis fetal bovine serum. Colonies of transformed cells (CHO/hGPR14), which were human GPR14-expessing CHO cells growing in the selection medium, were selected.
GPR14-expressing CHO cells were inoculated on a 96-well plate at 1×10^4 cell/well, cultured for 48 hours, and then washed with 0.1ml of HBSS containing 20mM HEPES(pH7.4), 1% FCS and 1% penicillin-streptomycin (hereinafter referred to as "wash buffer"). Next, 100µl of another wash buffer containing 4µM Fluo3, 0.04% pluronic acid and 2.5mM probenicid (hereinafter referred to as "reaction buffer") was added thereto for reaction at 37°C for 1 hour. […]

human GPR14 = target: T2, human GPR14 (Homo sapiens, UniProt Q9UKP6); test: Inhibition of binding of [125I]-labeled human urotensin II to GPR14 using human GPR14-expressing CHO cell membrane fraction; settings: concentration showing 50% inhibition of human GPR14 binding activity, 1nM [125I]-labeled human urotensin II, 25°C for 3 hours, read-out: Inhibitory concentration
T2 construct: expressed in transfected cells
T2 sequence (Q9UKP6 1-389): T1 sequence (Q9UKP6 1-389)
Procedure: To 1 x 10^8 CHO/GPR14 cells were added 10 ml of homogenate buffer (10 mM NaHCO3, 5 mM EDTA, 0.5 mM PMSF, 1µg/ml pepstatin, 4µg/ml E64, 20µg/ml leupeptin), and disrupted using Polytron (12,000 rpm, 1 minute). Cell debris solution was centrifuged at 1,000g for 15 minutes to obtain a supernatant. The supernatant was then […] (in Beckman type 30 rotor, 30,000 rpm, 1 hour), and the resultant precipitant was collected as human GPR14-expressing CHO cell fraction.
Isotope-labeled human urotensin II to be used in experiments for testing inhibition of binding was prepared as described below. 5 µg of human urotensin II (available from Peptide Institute, Inc.) was dissolved in 25µl of 0.4M sodium acetate (pH 5.6). […]
Human GPR14-expressing CHO cell fraction was diluted in a membrane diluting buffer (20mM phosphate buffer (pH7.3), 150mM NaCl, 5mM MgCl2,0.1% BSA, 0.05% CHAPS, 0.5mM PMSF, 0.1µg/ml Pepstatin, 20µg/ml Leupeptin, 4µg/ml E-64) to prepare a solution of cell membrane fraction (protein concentration:3µg/ml) for assay. […] Next, the filter was washed three times with membrane diluting buffer (0.2ml), added with 20µl of Microscinti 20 (Packard), and determined for radioactivity in Topcount (Packard). Specific-binding is calculated by subtracting non-specific binding from the total binding. […]

Compound | urotensin II-induced increase in intracellular calcium concentration [1] | IC50 (human GPR14) [nM]
1-benzyl-6-bromo-2,3-dihydro-1H-pyrrolo [2,3-b] quinoline-4-ylamine [Synthesis Example 1] | inhibited | 
Nc1c2c(nc3ccc(Br)cc13)N(Cc1ccccc1)CC2 [compound 2] | inhibited | 2.4
Nc1c2c(nc3ccccc13)N(Cc1ccccc1)CC2 [compound 3] |  | 33
